{"source": "patent US11046686B2", "about": "“Thiadiazole IRAK4 compounds” (Gilead Sciences, Inc., priority 2018, dated 2021)", "note": "pEC50: −log10 of the molar value."}
{"test_system": "TNFα", "assay": "IRAK4 Monocyte TNFα Cell Based Assay", "parameters": "species or system human", "settings": "human monocytes; second part of Table 2, compounds 33-343; unit inferred; read-out: EC50 MONO TNF HTRF", "experimental": "IRAK4 Monocyte TNFα Cell Based Assay Procedure:\nThe cell suspension was then plated at a density of 5,000 cells/well onto black 384 well Greiner clear bottom plates. Plates were pre-spotted with test compounds and serially diluted in DMSO where 40 nL/well were delivered using the Echo 550 acoustic liquid dispenser (Labcyte®) for a final DMSO concentration of 0.1%. Plated cells were treated with compound for 1 hour at 37° C. Cells were then stimulated with 50 pg/ml of LPS (Sigma) excluding outside columns of plate used for unstimulated cell control wells. Cells were incubated for an additional 4 hours at 37° C. Cells were then spun out of the media and 5 μl of sample were taken and analyzed for total TNFα content using the TR-FRET Human TNFα detection system (CisBio). This system utilizes two labeled antibodies (cryptate and XL665) that bind to two different epitopes of the TNFα molecule and produce FRET signal proportional to the concentration of TNFα in the sample. Detection antibodies are mixed 50:50 and 5 μL were dispensed into each well. Plates were covered with clear seals and incubated at room temp overnight. […] Percent of control was calculated as follows: % Control=100×(Ratiosample−Ratio0% stimulation)/(Ratio100% Stimulation−Ratio0% Stimulation) where unstimulated cells (0% stimulation) were the negative control and stimulated cells (100% stimulation) were used as the positive control."}
{"smiles": "CC(=O)N[C@@H]1C[C@H]2CC[C@@H](C1)N2c1nnc(-c2cnc(-c3ccc4cc(C#N)cnn34)cc2NC(C)C)s1", "note": "[Example 56, N-((1R,3s,5S)-8-(5-(6-(3-cyanopyrrolo[1,2-b]pyridazin-7-yl)-4-(isopropylamino)pyridin-3-yl)-1,3,4-thiadiazol-2-yl)-8-azabicyclo[3.2.1]octan-3-yl)acetamide]", "pEC50": 8.08}
{"smiles": "CC(C)Nc1cc(-c2ccc3cc(C#N)cnn23)ncc1-c1nnc(N2C[C@H]3CC[C@@H](C2)[C@@H]3NC(=O)N2CCOCC2)s1", "note": "[Example 57, N-((1R,5S,8s)-3-(5-(6-(3-cyanopyrrolo[1,2-b]pyridazin-7-yl)-4-(isopropylamino)pyridin-3-yl)-1,3,4-thiadiazol-2-yl)-3-azabicyclo[3.2.1]octan-8-yl)morpholine-4-carboxamide]", "pEC50": 8.17}
{"smiles": "CC(C)Nc1cc(-c2ccc3cc(C#N)cnn23)ncc1-c1nnc(N2C[C@H]3CC[C@@H](C2)[C@@H]3NS(C)(=O)=O)s1", "note": "[Example 58, N-((1R,5S,8s)-3-(5-(6-(3-cyanopyrrolo[1,2-b]pyridazin-7-yl)-4-(isopropylamino)pyridin-3-yl)-1,3,4-thiadiazol-2-yl)-3-azabicyclo[3.2.1]octan-8-yl)methanesulfonamide]", "pEC50": 8.03}
{"smiles": "COC(=O)N[C@@H]1[C@@H]2CC[C@H]1CN(c1nnc(-c3cnc(-c4ccc5cc(C#N)cnn45)cc3NC(C)C)s1)C2", "note": "[Example 59, methyl ((1R,5S,8s)-3-(5-(6-(3-cyanopyrrolo[1,2-b]pyridazin-7-yl)-4-(isopropylamino)pyridin-3-yl)-1,3,4-thiadiazol-2-yl)-3-azabicyclo[3.2.1]octan-8-yl)carbamate]", "pEC50": 7.83}
{"smiles": "CC(C)Nc1cc(-c2ccc3cc(C#N)cnn23)ncc1-c1nnc(N2C[C@H]3CC[C@@H](C2)[C@@H]3N)s1", "note": "[Example 60, 7-(5-(5-((1R,5S,8s)-8-amino-3-azabicyclo[3.2.1]octan-3-yl)-1,3,4-thiadiazol-2-yl)-4-(isopropylamino)pyridin-2-yl)pyrrolo[1,2-b]pyridazine-3-carbonitrile]", "pEC50": 8.07}
{"smiles": "CC(=O)N[C@@H]1CCN(c2nnc(-c3cnc(-c4ccc5cc(C#N)cnn45)cc3NC(C)C)s2)C[C@@H]1O", "note": "[Example 63]", "pEC50": 7.86}
{"smiles": "CC(=O)N1CCC2(CC1)CN(c1nnc(-c3cnc(-c4ccc5cc(C#N)cnn45)cc3NC(C)C)s1)C2", "note": "[Example 67, 7-(5-(5-(7-acetyl-2,7-diazaspiro[3.5]nonan-2-yl)-1,3,4-thiadiazo1-2-yl)-4-(isopropylamino)pyridin-2-yl)pyrrolo[1,2-b]pyridazine-3-carbonitrile]", "pEC50": 7.98}
{"smiles": "CC(=O)N[C@@H]1C[C@H]2C[C@@H]1CN2c1nnc(-c2cnc(-c3ccc4cc(C#N)cnn34)cc2NC(C)C)s1", "note": "[Example 73, N-((1R,4R,5R)-2-(5-(6-(3-cyanopyrrolo[1,2-]pyridazin-7-yl)-4-(isopropylamino)pyridin-3-yl)-1,3,4-thiadiazol-2-yl)-2-azabicyclo[2.2.1]heptan-5-yl)acetamide]", "pEC50": 7.19}
{"smiles": "CC(=O)N1CCC2(CC1)CN(c1nnc(-c3cnc(-c4ccc5cc(C#N)cnn45)cc3NC3COC3)s1)C2", "note": "[Example 75, 7-(5-(5-(7-acetyl-2,7-diazaspiro[3.5]nonan-2-yl)-1,3,4-hiadiazol-2-yl)-4-(oxetan-3-ylamino)pyridin-2-yl)pyrrolo[1,2-b]pyridazine-3-carbonitrile]", "pEC50": 8.49}
{"smiles": "CC(=O)N1CCC2(CC1)CN(c1nnc(-c3cnc(-c4ccc5cc(C#N)cnn45)cc3NC3CCOCC3)s1)C2", "note": "[Example 76, 7-(5-(5-(7-acetyl-2,7-diazaspiro[3.5]nonan-2-yl)-1,3,4-hiadiazol-2-yl)-4-((tetrahydro-2H-pyran-4-yl)amino)pyridin-2-yl)pyrrolo[1,2-b]pyridazine-3-carbonitrile]", "pEC50": 8.36}
{"smiles": "CC(=O)NC1CCC2(CC1)CN(c1nnc(-c3cnc(-c4ccc5cc(C#N)cnn45)cc3N[C@H](C)C#N)s1)C2", "note": "[Example 77]", "pEC50": 8.41}
{"smiles": "CC(=O)NC1CCC2(CC1)CN(c1nnc(-c3cnc(-c4ccc5cc(C#N)cnn45)cc3NC3COC3)s1)C2", "note": "[Example 78, N-(2-(5-(6-(3-cyanopyrrolo[1,2-b]pyridazin-7-yl)-4-(oxetan-3-ylamino)pyridin-3-yl)-1,3,4-thiadiazo1-2-yl)-2-azaspiro[3.5]nonan-7-yl)acetamide]", "pEC50": 8.05}
{"smiles": "CC(C)Nc1cc(-c2ccc3cc(C#N)cnn23)ncc1-c1nnc(C(C)(C)O)s1", "note": "[Example 80, 7-(5-(5-(2-hydroxypropan-2-yl)-1,3,4-thiadiazol-2-yl)-4-(isopropylamino)pyridin-2-yl)pyrro1o[1,2-b]pyridazine-3-carbonitrile]", "pEC50": 6.94}
{"smiles": "CC(C)Nc1cc(-c2ccc3cc(C#N)cnn23)ncc1-c1nnc(N2CC3(CCC(C)(O)CC3)C2)s1", "note": "[Example 82, 7-(5-(5-(7-hydroxy-7-methyl-2-azaspiro[3.5]nonan-2-yl)-1,3,4-thiadiazo1-2-yl)-4-(isopropylamino)pyridin-2-yl)pyrrolo[1,2-b]pyridazine-3-carbonitrile]", "pEC50": 7.64}
{"smiles": "CC(=O)N[C@H]1CC[C@@H](c2nnc(-c3cnc(-c4ccc5cc(C#N)cnn45)cc3NC(C)C)s2)OC1", "note": "[Example 84, N-((3S,6S)-6-(5-(6-(3-cyanopyrro1o[1,2-b]pyridazin-7-yl)-4-(isopropylamino)pyridin-3-yl)-1,3,4-thiadiazol-2-yl)tetrahydro-2H-pyran-3-yl)acetamide]", "pEC50": 8.07}
{"smiles": "CC(C)Nc1cc(-c2ccc3cc(C#N)cnn23)ncc1-c1nnc(N2C[C@H]3CC[C@@H](C2)[C@@H]3NC(=O)C(C)(C)O)s1", "note": "[Example 85, N-((1R,5S,8s)-3-(5-(6-(3-cyanopyrrolo[1,2-b]pyridazin-7-yl)-4-(isopropylamino)pyridin-3-yl)-1,3,4-thiadiazol-2-yl)-3-azabicyclo[3.2.1]octan-8-yl)-2-hydroxy-2-methylpropanamide]", "pEC50": 8.48}
{"smiles": "C[C@H](C#N)Nc1cc(-c2ccc3cc(C#N)cnn23)ncc1-c1nnc(N2C[C@H]3CC[C@@H](C2)[C@@H]3NC(=O)C(C)(C)O)s1", "note": "[Example 86]", "pEC50": 9.22}
{"smiles": "CC(C)(O)C(=O)N[C@@H]1[C@@H]2CC[C@H]1CN(c1nnc(-c3cnc(-c4ccc5cc(C#N)cnn45)cc3NC3COC3)s1)C2", "note": "[Example 87, N-((1R,5S,8s)-3-(5-(6-(3-cyanopyrrolo[1,2-b]pyridazin-7-yl)-4-(oxetan-3-ylamino)pyridin-3-yl)-1,3,4-thiadiazol-2-yl)-3-azabicyclo[3.2.1]octan-8-yl)-2-hydroxy-2-methylpropanamide]", "pEC50": 8.68}
{"smiles": "CC(C)Nc1cc(-c2ccc3cc(C#N)cnn23)ncc1-c1nnc(N2C[C@H]3CC[C@@H](C2)[C@@H]3NC(=O)[C@H]2C[C@](C)(O)C2)s1", "note": "[Example 92, (1r,3R)-N-((1R,5S,8s)-3-(5-(6-(3-cyanopyrrolo[1,2-b]pyridazin-7-yl)-4-(isopropylamino)pyridin-3-yl)-1,3,4-thiadiazol-2-yl)-3-azabicyclo[3.2.1]octan-8-yl)-3-hydroxy-3-methylcyclobutane-1-carboxamide]", "pEC50": 8.30}
{"smiles": "CC(C)Nc1cc(-c2ccc3cc(C#N)cnn23)ncc1-c1nnc(N2C[C@H]3CC[C@@H](C2)[C@@H]3NC(=O)[C@H]2C[C@@](C)(O)C2)s1", "note": "[Example 93, (1s,3S)-N-((1R,5S,8s)-3-(5-(6-(3-cyanopyrrolo[1,2-b]pyridazin-7-yl)-4-(isopropylamino)pyridin-3-yl)-1,3,4-thiadiazol-2-yl)-3-azabicyclo[3.2.1]octan-8-yl)-3-hydroxy-3-methylcyclobutane-1-carboxamide]", "pEC50": 8.23}
